Assay results from patent US9708259B2 (Hoffmann-La Roche Inc., priority 2013, dated 2017).
Substitutions are numbered along the chain they refer to. Read-outs that look alike come from different tables or passages of the source.

Legend:
human M1 = biological target: T1, human M1 (Homo sapiens, UniProt P11229); assay: M1 PAM assay (FLIPR intracellular calcium), human M1; type: cell-based
T1 construct: expressed in transfected cells; host or cells: CHO cells
T1 sequence (P11229 1-460): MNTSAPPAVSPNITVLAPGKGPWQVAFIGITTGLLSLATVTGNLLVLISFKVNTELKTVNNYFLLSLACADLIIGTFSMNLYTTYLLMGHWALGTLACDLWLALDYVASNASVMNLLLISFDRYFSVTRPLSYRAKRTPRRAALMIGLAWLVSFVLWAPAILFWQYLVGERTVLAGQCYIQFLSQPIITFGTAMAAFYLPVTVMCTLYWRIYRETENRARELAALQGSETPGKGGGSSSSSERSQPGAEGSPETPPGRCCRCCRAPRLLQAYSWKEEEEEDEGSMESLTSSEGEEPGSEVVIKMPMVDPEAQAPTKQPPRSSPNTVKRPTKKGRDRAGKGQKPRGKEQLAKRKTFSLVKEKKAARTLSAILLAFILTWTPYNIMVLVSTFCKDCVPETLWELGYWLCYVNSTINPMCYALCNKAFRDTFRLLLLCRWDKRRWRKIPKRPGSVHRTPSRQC
Experimental: The assay study the effect of several concentrations of test compounds on basal or acetylcholine-stimulated Ca^2+ levels using FLIPR.
CHO human M1 are plated the day before the experiments at 2×10^5 cells/ml in PDL BioCoat 96 well black/clear plate (Becton 35 4640). The cells are grown at 37° C. and 5% CO2 in the following medium: F12 Nut Mix (Gibco 21765), 10% FCS heat inactivated (GIBCO 16000-044), 1% Pen Strep (Gibco,15140) and 200 μg/ml Geneticin (Gibco 11811). On the day of the experiment, the medium was removed and replaced by […] of dye loading buffer containing Hanks Balanced Salt solution (HBSS, 14065-049, Gibco) with 20 mM HEPES (Gibco 15630-056), 2 mM Probenicid (Sigma P8761), […] ester (Molecular Probes F-14202), 10% Pluronic acid Molecular Probes P-3000) pH=7.4 and incubated at 37° C. After 60 minutes extracellular dye was removed and the cells were washed five times with FLIPR buffer containing HBSS (Gibco 14065-049) with 20 mM HEPES (Gibco, 15630-056), 2 mM Probenicid (Sigma P8761) pre-warmed at 37° C. using and Ebml cell washer leaving […] of FLIPR buffer in each well. The cell plate and the diluted compounds (1% DMSO final concentration) are placed on the platform of the FLIPR and the door closed. A signal test to check background fluorescence and basal fluorescence signal is performed. Laser intensity is adjusted if necessary. Two minutes preincubation with the diluted test compounds is provide to determine any agonist activity on the M1 receptor by comparison to 30 nM Acetylcholine control. In order to determine any modulator activity the diluted compounds were added to cells and after two minutes preincubation, the EC20 of acetylcholine is added followed by another two minutes preincubation before the measurement of intracellular Ca^2+ with a FLIPR (Molecular Devices).

ratM1 = biological target: T2, ratM1 (Rattus norvegicus, UniProt P08482); assay: M1 PAM assay (FLIPR intracellular calcium), rat M1; type: cell-based
T2 construct: expressed in transfected cells; host or cells: CHO cells (stated generally for the assay, not specifically for rat M1)
T2 sequence (P08482 1-460): T1 sequence (P11229 1-460) with A5V, T254S, P309S, R320K, A337G, I413V

[1] = CHO human M1 cells, FLIPR Ca2+, with EC20 of acetylcholine, first value of the cell, read-out: hM1 EC50
[2] = rat M1, FLIPR Ca2+, second value of the cell, read-out: ratM1 EC50

| Compound | EC50 (human M1; [1]) | EC50 (ratM1; [2]) | EC50 (human M1) | EC50 (ratM1) |
| --- | --- | --- | --- | --- |
| Cn1cc(-c2ccc(Cn3cc(C(=O)N[C@H]4CCOC[C@@H]4O)c4c(F)cccc43)c(F)c2)cn1 (mixture of isomers) [Example 6, 4-fluoro-1-(2-fluoro-4-(1-methyl-1H-pyrazol-4-yl)benzyl)-N-((3R,4RS)-3-hydroxytetrahydro-2H-pyran-4-yl)-1H-indole-3-carboxamide] | 70 nM | 147 nM | – | – |
| Cn1cc(-c2ccc(Cn3nc(C(=O)N[C@H]4CCOC[C@@H]4O)c4c(F)cccc43)c(F)c2)cn1 (racemic) [Example 7, 4-fluoro-1-(2-fluoro-4-(1-methyl-1H-pyrazol-4-yl)benzyl)-N-((3RS,4SR)-3-hydroxytetrahydro-2H-pyran-4-yl)-1H-indazole-3-carboxamide] | 70 nM | 147 nM | – | – |
| NC(=O)c1ccc(Cn2cc(C(=O)N[C@H]3CCOC[C@@H]3O)c3c(F)cccc32)cc1 (racemic) [Example 15, 1-(4-carbamoylbenzyl)-4-fluoro-N-((3RS,4SR)-3-hydroxytetrahydro-2H-pyran-4-yl)-1H-indole-3-carboxamide] | 12.4 nM | 9.61 nM | – | – |
| N#Cc1ccc(Cn2cc(C(=O)N[C@H]3CCOC[C@@H]3O)c3c(F)cccc32)cc1 (racemic) [Example 16, 1-(4-cyanobenzyl)-4-fluoro-N-((3RS,4SR)-3-hydroxytetrahydro-2H-pyran-4-yl)-1H-indole-3-carboxamide] | – | – | 237 nM | 337 nM |
| Cn1cc(-c2ccc(Cn3cc(C(=O)N[C@H]4CCCC[C@]4(C)O)c4c(F)cccc43)c(F)c2)cn1 (racemic) [Example 18, 4-fluoro-1-(2-fluoro-4-(1-methyl-1H-pyrazol-4-yl)benzyl)-N-((1SR,2SR)-2-hydroxy-2-methylcyclohexyl)-1H-indole-3-carboxamide] | 61.2 nM | 185 nM | – | – |
| Cn1cc(-c2ccc(Cn3cc(C(=O)N[C@H]4CCCC[C@@]4(C)O)c4c(F)cccc43)c(F)c2)cn1 (racemic) [Example 23, 4-fluoro-1-(2-fluoro-4-(1-methyl-1H-pyrazol-4-yl)benzyl)-N-((1SR,2RS)-2-hydroxy-2-methylcyclohexyl)-1H-indole-3-carboxamide] | 14.9 nM | 25.8 nM | – | – |
| Cn1cc(-c2ccc(Cn3cc(C(=O)N[C@@H]4C[C@@H]5CC[C@H]4O5)c4c(F)cccc43)c(F)c2)cn1 (relative stereo) [Example 104, N-((endo)-7-oxabicyclo[2.2.1]heptan-2-yl)-4-fluoro-1-(2-fluoro-4-(1-methyl-1H-pyrazol-4-yl)benzyl)-1H-indole-3-carboxamide] | 165 nM | 196 nM | – | – |
| Cc1cn(-c2ccc(Cn3cc(C(=O)N[C@H]4CCOC[C@@H]4O)c4c(F)cccc43)cc2)cn1 (single isomer, unassigned) [Example 51, 4-fluoro-N-((3R,4S) or (3S,4R)-3-hydroxytetrahydro-2H-pyran-4-yl)-1-(4-(4-methyl-1H-imidazol-1-yl)benzyl)-1H-indole-3-carboxamide] | 12.3 nM | 11.2 nM | – | – |
| Cn1ncc2cc(Cn3cc(C(=O)N[C@H]4CCOC[C@@H]4O)c4c(F)cccc43)ccc21 (single isomer, unassigned) [Example 52, 4-fluoro-N-((3R,4S) or (3S,4R)-3-hydroxytetrahydro-2H-pyran-4-yl)-1-((1-methyl-1H-indazol-5-yl)methyl)-1H-indole-3-carboxamide] | – | – | 17.9 nM | 27 nM |
| N#Cc1ccc(Cn2cc(C(=O)N[C@H]3CCOC[C@@H]3O)c3c(F)cccc32)cc1 (single isomer, unassigned) [Example 54, 1-(4-cyanobenzyl)-4-fluoro-N-((3R,4S) or (3S,4R)-3-hydroxytetrahydro-2H-pyran-4-yl)-1H-indole-3-carboxamide] | – | – | 69.6 nM | 122 nM |
| Cn1cc(-c2ccc(Cn3cc(C(=O)N[C@H]4CCOC[C@@H]4O)c4c(F)cccc43)cc2)cn1 (single isomer, unassigned) [Example 55, 4-fluoro-N-((3R,4S) or (3S,4R)-3-hydroxytetrahydro-2H-pyran-4-yl)-1-(4-(1-methyl-1H-pyrazol-4-yl)benzyl)-1H-indole-3-carboxamide] | 2.11 nM | 2.82 nM | – | – |
| Cn1cc(-c2ccc(Cn3cc(C(=O)NC4CCOCC4O)c4c(F)c(F)c(F)c(F)c43)cc2)cn1 (single isomer, unassigned) [Example 62, 4,5,6,7-Tetrafluoro-N-((3S,4R) or (3R,4S))-3-hydroxytetrahydro-2H-pyran-4-yl)-1-(4-(1-methyl-1H-pyrazol-4-yl)benzyl)-1H-indole-3-carboxamide] | 433 nM | 563 nM | – | – |
| Cn1cc(-c2ccc(Cn3cc(C(=O)N[C@H]4CCOC[C@@H]4O)c4c(F)c(F)c(F)c(F)c43)cc2)cn1 (single isomer, unassigned) [Example 63, 4,5,6,7-Tetrafluoro-N-((3R,4S) or (3S,4R)-3-hydroxytetrahydro-2H-pyran-4-yl)-1-(4-(1-methyl-1H-pyrazol-4-yl)benzyl)-1H-indole-3-carboxamide] | 19.6 nM | 54.2 nM | – | – |
| Cn1cc(-c2ccc(Cn3cc(C(=O)N[C@H]4CCOC[C@@H]4O)c4c(F)c(F)c(F)c(F)c43)c(F)c2)cn1 (single isomer, unassigned) [Example 64, 4,5,6,7-Tetrafluoro-1-(2-fluoro-4-(1-methyl-1H-pyrazol-4-yl)benzyl)-N-((3R,4S) or (3S,4R))-3-hydroxytetrahydro-2H-pyran-4-yl)-1H-indole-3-carboxamide] | 54.7 nM | 79.9 nM | – | – |
| O=C(N[C@H]1CCCC[C@@H]1O)c1cn(CC2CCN(c3ccccn3)CC2)c2cccc(F)c12 [Example 160, 4-Fluoro-N-((1S,2S)-2-hydroxycyclohexyl)-1-((1-(pyridin-2-yl)piperidin-4-yl)methyl)-1H-indole-3-carboxamide] | 196 nM | – | – | – |
| CNC(=O)c1ccc(Cn2cc(C(=O)NC3CCCCC3(F)F)c3c(F)cccc32)cc1F (stereo not drawn) [Example 165, N-(2,2-difluorocyclohexyl)-4-fluoro-1-(3-fluoro-4-(methy7lcarbamoyl)benzyl)-1H-indole-3-carboxamide] | 43 nM | – | – | – |
| CNC(=O)c1ccc(Cn2cc(C(=O)NC3CCOC(C)(C)C3)c3c(F)cccc32)cc1F (stereo not drawn) [Example 166, N-(2,2-dimethyltetrahydro-2H-pyran-4-yl)-4-fluoro-1-(3-fluoro-4-(methylcarbamoyl)benzyl)-1H-indole-3-carboxamide] | 35 nM | – | – | – |
| CNC(=O)c1ccc(Cn2cc(C(=O)NC3CCSCC3)c3c(F)cccc32)cc1F [Example 167, 4-fluoro-1-(3-fluoro-4-(methylcarbamoyl)benzyl)-N-(tetrahydro-2H-thiopyran-4-yl)-1H-indole-3-carboxamide] | 47 nM | – | – | – |
| CNC(=O)c1ccc(Cn2cc(C(=O)NC3CCOCC3C)c3c(F)cccc32)cc1F (stereo not drawn) [Example 168, 4-fluoro-1-(3-fluoro-4-(methylcarbamoyl)benzyl)-N-(3-methyltetrahydro-2H-pyran-4-yl)-1H-indole-3-carboxamide] | 97 nM | – | – | – |
